Measurements: patent publication US12384765B2, “Catecholamine prodrugs for use in the treatment of Parkinson's Disease” (H. Lundbeck A/S, priority 2019, dated 2025)

Experiments:
[1] = PK experiments in rats, plasma compound (I) after oral dosing; format: in vivo, Han Wistar rats; settings: for Observed metabolite, In vivo PK study after oral dosing (rats) / conversion to compound (I) in vivo: oral dosing, rats
Method: Plasma was placed on water-ice following collection. Final storage at approximately −70° C.
Mobile phase B: Acetonitrile. […] Flow rate 0.5 mL/min.
The rats had unrestricted access to the diet.
Mobile phase B: Acetonitrile+0.2% formic acid. […] Flow rate 0.3 mL/min.
The rats received a standard laboratory diet Teklad 2014C. The rats had unrestricted access to the diet.

human 5-HT2B receptor = human 5-HT2B receptor (Homo sapiens (Human), UniProt P41595); assay: 5-HT2B agonist activity assay (IP1 production, HTRF); format: cell-based; settings: for activity at 10 µM: read-out: 5-HT2B agonist activity, percent of control response
human 5-HT2B receptor, sequence (P41595 whole entry): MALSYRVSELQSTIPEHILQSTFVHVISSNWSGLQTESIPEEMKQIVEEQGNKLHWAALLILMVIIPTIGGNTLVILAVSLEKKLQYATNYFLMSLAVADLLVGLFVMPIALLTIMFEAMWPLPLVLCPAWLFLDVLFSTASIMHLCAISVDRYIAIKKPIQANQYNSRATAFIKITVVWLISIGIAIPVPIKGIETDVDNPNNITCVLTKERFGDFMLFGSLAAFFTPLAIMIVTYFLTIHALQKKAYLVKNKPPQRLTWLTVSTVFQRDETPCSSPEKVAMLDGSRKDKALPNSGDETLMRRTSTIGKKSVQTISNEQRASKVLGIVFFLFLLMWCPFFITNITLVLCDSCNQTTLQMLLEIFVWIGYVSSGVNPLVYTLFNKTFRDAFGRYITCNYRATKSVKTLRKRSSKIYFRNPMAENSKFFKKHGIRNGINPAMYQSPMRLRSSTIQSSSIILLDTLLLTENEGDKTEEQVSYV
Method: Evaluation of the agonist activity of compounds (I), (Ia), (Ib), (Ic), (Ia-iab), compound (2), compound (9), compound (15), compound (27), A2, A3, and A7 at the human 5-HT2B receptor was performed by Eurofins/Cerep (France) measuring the compound effects on inositol monophosphate (IP1) production using the HTRF detection method. Briefly, the human 5-HT2B receptor was expressed in transfected CHO cells. The cells were suspended in a buffer containing 10 mM Hepes/NaOH (pH 7.4), 4.2 mM KCl, 146 mM NaCl, 1 mM CaCl2, 0.5 mM MgCl2, 5.5 mM glucose and 50 mM LiCl, then distributed in microplates at a density of 4100 cells/well and incubated for 30 minutes at 37° C. in the presence of buffer (basal control), test compound or reference agonist. For stimulated control measurement, separate assay wells contained 1 μM 5-HT. Following incubation, the cells were lysed and the fluorescence acceptor (fluorophen D2-labeled IP1) and fluorescence donor (anti-IP1 antibody labeled with europium cryptate) were added. After 60 minutes at room temperature, the fluorescence transfer was measured at lambda(Ex) 337 nm and lambda(Em) 620 and 665 nm using a microplate reader (Rubystar, BMG). The IP1 concentration was determined by dividing the signal measured at 665 nm by that measured at 620 nm (ratio). The results were expressed as a percent of the control response to 1 μM 5-HT. The standard reference agonist was 5-HT, which was tested in each experiment at several concentrations to generate a concentration-response curve from which its EC50 value is calculated as described above for dopamine functional assays.

[2] = Conversion of compounds in human plasma; format: in vitro ADME; settings: for Observed metabolite, Incubation in human plasma: 1 μM test compound, 37° C., 0-6 hr, nd: not detected; for appearance of compound (I) / conversion in vitro: incubation in human plasma and/or human hepatocytes
Method: Frozen human plasma was thawed and then centrifuged at 3200×g for 5 min to remove debris. The pH value of the supernatant was then measured and adjusted to 7.4±0.1 by adding 1% phosphoric acid or 1 N sodium hydroxide. 2 μL of dosing solution (50 μM for test compounds and 100 μM for positive control (propantheline bromide)) was mixed with 98 μL of blank plasma to achieve 1 μM test compound and 2 μM positive control of final concentration. The mixture was incubated, and samples were withdrawn from the incubations at the pre-determined time points of 0, 0.5, 1, 2, 4 and 6 hr (in duplicate) at 37° C. in water bath. At each corresponding time point 10 μL inhibitor and 20 μL ascorbic acid and 2 μL formic acid (20%) are added, and then added 400 μL of “stop solution” (200 ng/mL tolbutamide plus 200 ng/mL labetalol in 50% ACN/MeOH) to precipitate protein. The substance was mixed thoroughly and thereafter Centrifugated at 4,000 rpm for 20 minutes. Then an aliquot of supernatant (50 μL) was transferred from each well to a sample plate and mixed with 100 μL ultrapure water. The plate was shaked at 800 rpm for about 10 minutes before submitting to LC-MS/MS analysis.
Mass spectrometer (LC-MS/MS) Shimadzu LC 20-AD Shimadzu UHPLC API 4000. Analytical column ACQUITY UPLC® BEH Phenyl 1.7 μm 2.1×50 mm. Mobile phase A: 0.1% Formic Acid in Water. Mobile phase B: 0.1% Formic Acid in Acetonitrile. […] Flow rate 0.7 mL/min.

CCCN1CCC[C@@H]2Cc3c(ccc(OC(=O)C(C)(C)C)c3OC(=O)C(C)(C)C)C[C@H]21 [(Ic), reference compound]
plasma concentrations of compound (I) after oral dosing (in words) ([1]; oral dosing to Wistar rats): extremely low | activity at 10 µM (human 5-HT2B receptor): -5%

CCCN1CCC[C@@H]2Cc3c(ccc(O)c3O[C@@H]3O[C@H](C(=O)OC)[C@@H](OC(C)=O)[C@H](OC(C)=O)[C@H]3OC(C)=O)C[C@H]21 [Compound (2), (2S,3R,4S,5S,6S)-2-(((4aR,10aR)-7-hydroxy-1-propyl-1,2,3,4,4a,5,10,10a-octahydrobenzo[g]quinolin-6-yl)oxy)-6-(methoxycarbonyl)tetrahydro-2H-pyran-3,4,5-triyl triacetate]
Observed metabolite, In vivo PK study after oral dosing (rats) [1]: Compound (I) | conversion to compound (I) in vivo [1]: showed conversion in vivo | Observed metabolite, Incubation in human plasma [2]: Compound (Id-ia) | appearance of compound (I) / conversion in vitro [2]: no appearance of compound (I) | activity at 10 µM (human 5-HT2B receptor): 10%

CCCN1CCC[C@@H]2Cc3c(ccc(O)c3O[C@@H]3OC(C(=O)OC)=C[C@H](OC(C)=O)[C@H]3OC(C)=O)C[C@H]21 [Compound (3), (2R,3R,4S)-2-(((4aR,10aR)-7-hydroxy-1-propyl-1,2,3,4,4a,5,10,10a-octahydrobenzo[g]quinolin-6-yl)oxy)-6-(methoxycarbonyl)-3,4-dihydro-2H-pyran-3,4-diyl diacetate]
Observed metabolite, Incubation in human plasma [2]: Compound (9)

CCCN1CCC[C@@H]2Cc3c(ccc(OCc4ccccc4)c3O[C@@H]3O[C@H](C(=O)O)[C@@H](O)[C@H](O)[C@H]3O)C[C@H]21 [Compound (4), (2S,3S,4S,5R,6S)-6-(((4aR,10aR)-7-(benzyloxy)-1-propyl-1,2,3,4,4a,5,10,10a-octahydrobenzo[g]quinolin-6-yl)oxy)-3,4,5-trihydroxytetrahydro-2H-pyran-2-carboxylic acid]
Observed metabolite, Incubation in human plasma [2]: Compound A2

CCCN1CCC[C@@H]2Cc3c(ccc(O)c3O[C@@H]3OC(C(=O)O)=C[C@H](O)[C@H]3O)C[C@H]21 [Compound (9), (2R,3R,4S)-3,4-dihydroxy-2-(((4aR,10aR)-7-hydroxy-1-propyl-1,2,3,4,4a,5,10,10a-octahydrobenzo[g]quinolin-6-yl)oxy)-3,4-dihydro-2H-pyran-6-carboxylic acid]
conversion to compound (I) in vivo [1]: showed conversion in vivo | appearance of compound (I) / conversion in vitro [2]: no appearance of compound (I) | activity at 10 µM (human 5-HT2B receptor): 9%

CCCN1CCC[C@@H]2Cc3c(ccc(O)c3O[C@@H]3O[C@H](C(=O)OCC)[C@@H](OC(C)=O)[C@H](OC(C)=O)[C@H]3OC(C)=O)C[C@H]21 [Compound (11), (2S,3S,4S,5R,6S)-2-(ethoxycarbonyl)-6-(((4aR,10aR)-7-hydroxy-1-propyl-1,2,3,4,4a,5,10,10a-octahydrobenzo[g]quinolin-6-yl)oxy)tetrahydro-2H-pyran-3,4,5-triyl triacetate]
appearance of compound (I) / conversion in vitro [2]: converted to compound (Id-ia)

CCCN1CCC[C@@H]2Cc3c(ccc(O)c3O[C@@H]3O[C@H](C(=O)OCC)[C@@H](OC(=O)C(C)(C)C)[C@H](OC(=O)C(C)(C)C)[C@H]3OC(=O)C(C)(C)C)C[C@H]21 [Compound (14), (2S,3S,4S,5R,6S)-2-(ethoxycarbonyl)-6-(((4aR,10aR)-7-hydroxy-1-propyl-1,2,3,4,4a,5,10,10a-octahydrobenzo[g]quinolin-6-yl)oxy)tetrahydro-2H-pyran-3,4,5-triyl tris(2,2-dimethylpropanoate)]
Observed metabolite, Incubation in human plasma [2]: Compound (6)

CCCN1CCC[C@@H]2Cc3c(ccc(OC)c3O[C@@H]3O[C@H](C(=O)O)[C@@H](O)[C@H](O)[C@H]3O)C[C@H]21 [Compound (15), (2S,3S,4S,5R,6S)-3,4,5-trihydroxy-6-(((4aR,10aR)-7-methoxy-1-propyl-1,2,3,4,4a,5,10,10a-octahydrobenzo[g]quinolin-6-yl)oxy)tetrahydro-2H-pyran-2-carboxylic acid]
conversion to compound (I) in vivo [1]: showed conversion in vivo | appearance of compound (I) / conversion in vitro [2]: no appearance of compound (I) | activity at 10 µM (human 5-HT2B receptor): 0%

CCCN1CCC[C@@H]2Cc3c(ccc(O)c3O[C@@H]3O[C@H](C(=O)OC)[C@@H](OC(=O)C(C)(C)C)[C@H](OC(=O)C(C)(C)C)[C@H]3OC(=O)C(C)(C)C)C[C@H]21 [Compound (26), (2S,3S,4S,5R,6S)-2-(methoxycarbonyl)-6-(((4aR,10aR)-7-hydroxy-1-propyl-1,2,3,4,4a,5,10,10a-octahydrobenzo[g]quinolin-6-yl)oxy)tetrahydro-2H-pyran-3,4,5-triyl tris(2,2-dimethylpropanoate)]
Observed metabolite, Incubation in human plasma [2]: Compound (6)

CCCN1CCC[C@@H]2Cc3c(ccc(O[C@@H]4O[C@H](C(=O)OC)[C@@H](OC(C)=O)[C@H](OC(C)=O)[C@H]4OC(C)=O)c3O)C[C@H]21 [Compound (27), (2S,3R,4S,5S,6S)-2-(((4aR,10aR)-6-hydroxy-1-propyl-1,2,3,4,4a,5,10,10a-octahydrobenzo[g]quinolin-7-yl)oxy)-6-(methoxycarbonyl)tetrahydro-2H-pyran-3,4,5-triyl triacetate]
Observed metabolite, In vivo PK study after oral dosing (rats) [1]: Compound (I) | Observed metabolite, Incubation in human plasma [2]: Compound (Id-ib) | activity at 10 µM (human 5-HT2B receptor): 2%

CCCN1CCC[C@@H]2Cc3c(ccc(OCc4ccccc4)c3O)C[C@H]21.I [Compound A2, (4aR,10aR)-7-(Benzyloxy)-1-propyl-1,2,3,4,4a,5,10,10a-octahydrobenzo[g]quinolin-6-ol hydroiodide]
Observed metabolite, In vivo PK study after oral dosing (rats) [1]: Compound (I) | activity at 10 µM (human 5-HT2B receptor): 30%

CCCN1CCC[C@@H]2Cc3c(ccc(O[C@@H]4O[C@H](C(=O)OC)[C@@H](OC(C)=O)[C@H](OC(C)=O)[C@H]4OC(C)=O)c3OC(C)=O)C[C@H]21 [Compound A3, (2S,3R,4S,5S,6S)-2-(((4aR,10aR)-6-Acetoxy-1-propyl-1,2,3,4,4a,5,10,10a-octahydrobenzo[g]quinolin-7-yl)oxy)-6-(methoxycarbonyl)tetrahydro-2H-pyran-3,4,5-triyl triacetate]
Observed metabolite, Incubation in human plasma [2]: compound (27) | 5-HT2B agonist activity, percent of control response (human 5-HT2B receptor; @ 10 μM): 3% @ 10 μM

CCCN1CCC[C@@H]2Cc3c(ccc(O[C@@H]4O[C@H](C(=O)OC)[C@@H](OC(C)=O)[C@H](OC(C)=O)[C@H]4OC(C)=O)c3O[C@@H]3O[C@H](C(=O)OC)[C@@H](OC(C)=O)[C@H](OC(C)=O)[C@H]3OC(C)=O)C[C@H]21 [Compound I2, methyl (2S,3S,4S,5R,6S)-6-[[(4aR,10aR)-1-propyl-6-[(2S,3R,4S,5S,6S)-3,4,5-triacetoxy-6-methoxycarbonyl-tetrahydropyran-2-yl]oxy-3,4,4a,5,10,10a-hexahydro-2H-benzo[g]quinolin-7-yl]oxy]-3,4,5-triacetoxy-tetrahydropyran-2-carboxylate]
appearance of compound (I) / conversion in vitro [2]: no vitro conversion
